The values below come from patent publication US4163011A, “Peptide compounds and compositions” (priority 1978, dated 1979).

Assay type in all cases: in vivo
In one experiment the test system is adult female mice. Put plainly: Compensatory Ovarian Hypertrophy (COH) after unilateral ovariectomy (Table I). The following applies: for COH (± SE): sacrificed day 5, control 45.5 ± 5.3. How it is done:
A. Compensatory Ovarian Hypertrophy (COH) is an effect in standard laboratory (mammalian) animals for assessing antigonadotrophic activity by determining the increase in weight of the remaining gonad after unilateral gonadectomy. Procedures for COH measurement in female rats are described in Ramirez, V.D., et al., Endocrinology 95:475 (1974). According to these known procedures threonine-serine-lysine, prepared in Example 1, is administered intraperitoneally to adult female mice on the same day as a unilateral ovariectomy is performed. On day 5, both experimental and control animals are sacrificed and mean ovarian weights are obtained.

The next experiment concerns Female Mice. Put plainly: Compensatory ovarian hypertrophy in unilaterally ovariectomized mice (Table II). To be noted: 5 days after treatment, control 29.7 ± 8.4. How it is done:
(§1) B. The effect of threonine-serine-lysine on serum concentrations of FSH in the […] is measured 24 hr after intraperitoneal injection of threonine-serine-lysine to unilaterally ovariectomized mice. On day 5 after injection, the animals were sacrificed and ovarian weights recorded There are then determined compensatory ovarian hypertrophy (5 days after treatment) as well as the serum FSH (24 hr after treatment).

The subject of the next experiment is Serum FSH. The experiment is described as follows: Serum FSH in unilaterally ovariectomized mice (Table II). To be noted: 24 hr after treatment, control 296.8 ± 375. How it is done: as §1
In the next experiment the test system is GnRH-induced rise in FSH. The experiment is described as follows: Inhibition of GnRH-induced rise in FSH in the male rat (Table III). The following applies: for Mean concentration of plasma FSH (± SE): GnRH-treated male rat. How it is done:
C. The antifertility effects of threonine-serine-lysine on the male rat are measured by their ability to inhibit GnRH-or gonadotropin releasing hormone-induced rise in FSH when threonine-serine-lysine is administered intravenously. In this test, both control and tripeptide-treated animals received GnRH in a phosphate buffered saline solution, followed by the administration of the tripeptide in the same buffer.

Peptide text beside a SMILES is read from it.

Regarding `C[C@@H](O)[C@H](N)C(=O)N[C@@H](CO)C(=O)N[C@@H](CCCCN)C(=O)O` [threonine-serine-lysine] (H-Thr-Ser-Lys-OH), the “COH (± SE)” value in the experiment on adult female mice (dose 186.1 ng intraperitoneally on day of unilateral ovariectomy) is listed as 34.6 ± 6.8%; with adult female mice (dose 372.2 ng intraperitoneally on day of unilateral ovariectomy) it was 11.1 ± 15.1%; with Female Mice (dose 35.1 ng intraperitoneal), 12.6 ± 10.9%; in the experiment on Female Mice (dose 70.3 ng intraperitoneal), 21.9 ± 8.0%; in the experiment on Female Mice (dose 175.7 ng intraperitoneal) it was 12.9 ± 5.0%; in the experiment on Female Mice (dose 351.7 ng intraperitoneal), 21.1 ± 7.8%. The “Compensatory ovarian hypertrophy, result in words” value in the experiment on adult female mice (intraperitoneal, Table I doses) was “reduced in a dose-dependent manner”. The “Serum FSH (± SE)” value is 254.4 ± 88.7 ng/mL in the experiment on Serum FSH (dose 35.1 ng intraperitoneal), 377.0 ± 56.9 ng/mL in the experiment on Serum FSH (dose 70.3 ng intraperitoneal), 165.0 ± 22.5 ng/mL in the experiment on Serum FSH (dose 175.7 ng intraperitoneal) and 179.0 ± 60.9 ng/mL with Serum FSH (dose 351.7 ng intraperitoneal). Further, the “Mean concentration of plasma FSH (± SE)” value in the experiment with GnRH-induced rise in FSH (dose 1.48 ng intravenously, 0 min, control 362.5 ± 20.7) stood at 302.2 ± 26.2 ng/mL; with GnRH-induced rise in FSH (dose 1.48 ng intravenously, 15 min, control 1753.4 ± 450.6) it was 338.4 ± 38.8 ng/mL; with GnRH-induced rise in FSH (dose 1.48 ng intravenously, 30 min, control 1701.6 ± 720.6), 592.5 ± 217.6 ng/mL; with GnRH-induced rise in FSH (dose 1.48 ng intravenously, 60 min, control 247.8 ± 14.0), 586.5 ± 301.3 ng/mL; in the experiment with GnRH-induced rise in FSH (dose 14.8 ng intravenously, 0 min, control 362.5 ± 20.7), 45.6 ± 52.3 ng/mL; with GnRH-induced rise in FSH (dose 14.8 ng intravenously, 15 min, control 1753.4 ± 450.6), 402.9 ± 117.7 ng/mL. The “Mean concentration of plasma FSH (± SE)” value with GnRH-induced rise in FSH (dose 14.8 ng intravenously, 30 min, control 1701.6 ± 720.6) was found to be 472.7 ± 76.9 ng/mL; in the experiment on GnRH-induced rise in FSH (dose 14.8 ng intravenously, 60 min, control 247.8 ± 14.0), 684.5 ± 142.0 ng/mL; with GnRH-induced rise in FSH (dose 148 ng intravenously, 0 min, control 362.5 ± 20.7) it was 43.9 ± 85.6 ng/mL; with GnRH-induced rise in FSH (dose 148 ng intravenously, 15 min, control 1753.4 ± 450.6), 646.1 ± 198.0 ng/mL; in the experiment with GnRH-induced rise in FSH (dose 148 ng intravenously, 30 min, control 1701.6 ± 720.6) it was 1407.8 ± 499.6 ng/mL; in the experiment on GnRH-induced rise in FSH (dose 148 ng intravenously, 60 min, control 247.8 ± 14.0) it was 1279.6 ± 180.8 ng/mL. The “GnRH-induced rise in FSH, result in words” value with GnRH-induced rise in FSH (intravenous, male rat, Table III doses) is reported as “FSH suppression”.
